Experimental data taken from patent US7566733B2, “Benzimidazole derivatives useful as selective androgen receptor modulators (sarms)” (priority 2004, dated 2009).

The molecules below were run on castrated male Sprague Dawley rats (assay: Ventral Prostate and Seminal Vesicle Weight In Vivo Assay). Details: inhibition of testosterone-enhanced prostate weight; immature castrated rats, once daily for five days, usually orally 40 mg/kg, with testosterone propionate 2 mg/kg s.c.
Procedure: Ventral Prostate and Seminal Vesicle Weight In Vivo Assay; note: key: active: the non weight adjusted prostate weight was ≦40 mg or the % Inhibition prostate weight, body weight adjusted was ≧40%@2 mg/day dosage; inactive: did not meet the specified criteria defined above
Immature (approximately 50 g) castrated male Sprague Dawley rats (Charles River) were treated once daily for five days with test compound (usually given orally at 40 mg/kg in a volume of 0.3 mL, in 30% cyclodextrin or 0.5% methylcellulose vehicle) and with testosterone propionate (given subcutaneously by injection at the nape of the neck at 2 mg/kg, in a volume of 0.1 mL in sesame oil). On the sixth day, the rats were euthanized by asphyxiation in carbon dioxide. Ventral prosatates and seminal vesicles were removed and their wet weights determined. Test compound activity was determined as the percent inhibition of testosterone-enhanced tissue weights, with a vehicle-treated control group set to zero percent and a testosterone alone-treated control group set to 100%.
Representative compounds of the present invention were tested according to the procedure described, with results as listed in Table 7 below. A test compound is listed as “active” if the non weight adjusted prostate weight was ≦40 mg or the % Inhibition prostate weight, body weight adjusted was ≧40%@2 mg/day dosage. ID50's, if determined, of ≦15 mg/day also indicated an “active” compound.

Row | SMILES | Activity
1 | CC(O)(CC#N)c1nc2cc(Cl)c(Cl)cc2[nH]1 (stereo not drawn) [Compound 7, 3-(5,6-dichloro-1H-benzoimidazol-2-yl)-3-hydroxy-butyronitrile] | active
2 | FC(F)(F)Cc1nc2cc(Cl)c(Cl)cc2n1CCOc1ccc(Cl)cc1 [Compound 124, 5,6-Dichloro-1-[2-(4-chloro-phenoxy)-ethyl]-2-(2,2,2-trifluoro-ethyl)-1H-benzoimidazole] | active
3 | FC(F)(F)Cc1nc2cc(Cl)c(Cl)cc2n1Cc1ccccc1Cl [Compound 125, 5,6-Dichloro-1-(2-chloro-benzyl)-2-(2,2,2-trifluoro-ethyl)-1H-benzoimidazole] | active
4 | Cc1onc(-c2ccccc2)c1C(=O)Cn1c(CC(F)(F)F)nc2cc(Cl)c(Cl)cc21 [Compound 126, 2-[5,6-Dichloro-2-(2,2,2-trifluoro-ethyl)-benzoimidazol-1-yl]-1-(5-methyl-3-phenyl-isoxazol-4-yl)-ethanone] | inactive
5 | Cc1cc2[nH]c(C(O)C(F)(F)F)nc2cc1Cl (stereo not drawn) [Compound 128, 1-(5-Chloro-6-methyl-1H-benzoimidazol-2-yl-)2,2,2-trifluoro-ethanol] | inactive
6 | COc1cccc(Cn2c(CC(F)(F)F)nc3cc(Cl)c(Cl)cc32)c1 [Compound 129, 5,6-Dichloro-1-(3-methoxy-benzyl)-2-(2,2,2-trifluoro-ethyl)-1H-benzoimidazole] | inactive
7 | FC(F)(F)Cc1nc2cc(Cl)c(Cl)cc2n1Cc1ccc(-n2cccn2)cc1 [Compound 131, 5,6-Dichloro-1-(4-pyrazol-1-yl-benzyl)-2-(2,2,2-trifluoro-ethyl)-1H-benzoimidazole] | inactive
8 | FC(F)(F)Cc1nc2cc(Cl)c(Cl)cc2n1Cc1ccc(-c2csnn2)cc1 [Compound 132, 5,6-Dichloro-1-(4-[1,2,3]thiadiazol-4-yl-benzyl)-2-(2,2,2-trifluoro-ethyl)-1H-benzoimidazole] | inactive
9 | Cc1oncc1Cn1c(CC(F)(F)F)nc2cc(Cl)c(Cl)cc21 [Compound 133, 5,6-Dichloro-1-(5-methyl-isoxazol-4-ylmethyl)-2-(2,2,2-trifluoro-ethyl)-1H-benzoimidazole] | active
10 | FC(F)(F)Cc1nc2cc(Cl)c(Cl)cc2n1Cc1cccc(OC(F)(F)F)c1 [Compound 134, 5,6-Dichloro-2-(2,2,2-trifluoro-ethyl)-1-(3-trifluoromethoxy-benzyl)-1H-benzoimidazole] | inactive
11 | N#Cc1cc2nc(C(O)C(F)(F)F)[nH]c2cc1C(F)(F)F (stereo not drawn) [Compound 135, 2-(2,2,2-Trifluoro-1-hydroxy-ethyl)-6-trifluoromethyl-1H-benzoimdazole-5-carbonitrile] | inactive
12 | N#Cc1ccc(OCCn2c(CC(F)(F)F)nc3cc(Cl)c(Cl)cc32)cc1 [Compound 136, 4-{2-[5,6-Dichloro-2-(2,2,2-trifluoro-ethyl)-benzoimidazol-1-yl]-ethoxy}-benzonitrile] | active
13 | O=[N+]([O-])c1ccccc1Cn1c(CC(F)(F)F)nc2cc(Cl)c(Cl)cc21 [Compound 137, 5,6-Dichloro-1-(2-nitro-benzyl)-2-(2,2,2-trifluoro-ethyl)-1H-benzoimidazole] | active
14 | FC(F)(F)Cc1nc2cc(Cl)c(Cl)cc2n1Cc1ccc(-n2cccc2)cc1 [Compound 138, 5,6-Dichloro-1-(4-pyrrol-1-yl-benzyl)-2-(2,2,2-trifluoro-ethyl)-1H-benzoimidazole] | active
15 | O=[N+]([O-])c1cccc(Cn2c(CC(F)(F)F)nc3cc(Cl)c(Cl)cc32)c1 [Compound 139, 5,6-Dichloro-1-(3-nitro-benzyl)-2-(2,2,2-trifluoro-ethyl)-1H-benzoimidazole] | active
16 | FC(F)(F)Cc1nc2cc(Cl)c(Cl)cc2n1Cc1ccc(SC(F)(F)F)cc1 [Compound 140, 5,6-Dichloro-2-(2,2,2-trifluoro-ethyl)-1-(4-trifluoromethvlsulfanvl-benzvl)-1H-benzoimidazole] | inactive

Row | SMILES | Activity
17 | CS(=O)(=O)c1ccc(Cn2c(CC(F)(F)F)nc3cc(Cl)c(Cl)cc32)cc1 [Compound 142, 5,6-Dichloro-1-(4-methanesulfonyl-benzyl)-2-(2,2,2-trifluoro-ethyl)-1H-benzoimidazole] | inactive
18 | CC/C(Cn1c(CC(F)(F)F)nc2cc(Cl)c(Cl)cc21)=N/O [Compound 144, 1-[5,6-Dichloro-2-(2,2,2-trifluoro-ethyl)-benzoimidazol-1-yl]-butan-2-one Oxime] | active
19 | FC(F)(F)Cc1nc2cc(Cl)c(Cl)cc2n1Cc1ccc(OCc2ccccc2)cc1 [Compound 146, 1-(4-Benzyloxy-benzyl)-5,6-dichloro-2-(2,2,2-trifluoro-ethyl)-1H-benzoimidazole] | active
20 | COc1ccc(Cn2c(CC(F)(F)F)nc3cc(Cl)c(Cl)cc32)cc1 [Compound 147, 5,6-Dichloro-1-(4-methoxy-benzyl)-2-(2,2,2-trifluoro-ethyl)-1H-benzoimidazole] | active
21 | CCC(O)Cn1c(CC(F)(F)F)nc2cc(Cl)c(Cl)cc21 (stereo not drawn) [Compound 148, 1-[5,6-Dichloro-2-(2,2,2-trifluoro-ethyl)-benzoimidazol-1-yl]-butan-2-ol] | active
22 | FC(F)(F)Cc1nc2cc(Cl)c(Cl)cc2n1Cc1ccc(Br)cc1 [Compound 149, 1-(4-Bromo-benzyl)-5,6-dichloro-2-(2,2,2-trifluoro-ethyl)-1H-benzoimidazole] | active
23 | CCOC(=O)c1ccc(Cn2c(CC(F)(F)F)nc3cc(Cl)c(Cl)cc32)cc1 [Compound 150, 4-[5,6-Dichloro-2-(2,2,2-trifluoro-ethyl)-benzoimidazol-1-ylmethyl]-benzoic Acid Ethyl Ester] | active
24 | FC(F)(F)Cc1nc2cc(Cl)c(Cl)cc2n1Cc1ccccc1Br [Compound 151, 1-(2-Bromo-benzyl)-5,6-dichloro-2-(2,2,2-trifluoro-ethyl)-1H-benzoimidazole] | active
25 | FC(c1nc2cc(Cl)c(Cl)cc2[nH]1)C(F)(F)F (stereo not drawn) [Compound 152, 5,6-Dichloro-2-(1,2,22-tetrafluoro-ethyl)-1H-benzoimidazole] | active
26 | O=Cc1ccc(Cn2c(CC(F)(F)F)nc3cc(Cl)c(Cl)cc32)cc1 [Compound 153, 4-[5,6-Dichloro-2-(trifluoro-ethyl)-benzoimidazol-1-ylmethyl]-benzaldehyde] | inactive
27 | FC(F)(F)C(F)(F)c1nc2cc(Cl)c(Cl)cc2[nH]1 [Compound 154, 5,6-Dichloro-2-(pentafluoroethyl)-1H-benzoimidazole] | inactive
28 | O=[N+]([O-])c1cc2nc(C(O)C(F)(F)F)[nH]c2cc1[N+](=O)[O-] (stereo not drawn) [Compound 155, 1-(5,6-Dinitro-1H-benzoimidazol-2-yl-)2,2,2-trifluoro-ethanol] | inactive
29 | OC(c1nc2cc(Cl)ccc2[nH]1)C(F)(F)F (stereo not drawn) [Compound 156, 1-(5-1H-benzoimidazol-2-yl-)2,2,2-trifluoro-ethanol] | inactive
30 | COc1cc2nc(C(O)C(F)(F)F)[nH]c2cc1OC (stereo not drawn) [Compound 157, 1-(5,6-Dimethoxy-1H-benzoimidazol-2-yl-)2,2,2-trifluoro-ethanol] | inactive
31 | O=C(c1nc2cc(Cl)c(F)cc2[nH]1)C(F)(F)F [Compound 159, 1-(5-Chloro-6-fluoro-1H-benzoimidazol-2-yl-)2,2,2-trifluoro-ethanone] | active
32 | Cc1cc2[nH]c(C(=O)C(F)(F)F)nc2cc1Cl [Compound 160, 1-(5-Chloro-6-methyl-1H-benzoimidazol-2-yl-)2,2,2-trifluoro-ethanone] | active

The molecules below were run on castrated male Sprague Dawley rats (assay: Ventral Prostate and Levator Ani Weight In Vivo Assay). Details: mature castrated rats, once daily for 14 days, oral gavage, 30 mg/kg.
Parameters: key: active: greater than or equal to 25% stimulation of levator ani at 30 mg/kg
Procedure: Ventral Prostate and Levator Ani Weight In Vivo Assay
Mature (150 to 200 g) castrated male Sprague Dawley rats (Charles River) were treated once daily for 14 days with test compound (usually administered by oral gavage at up to the desired dosage, up to 30 mg/kg in a volume of 1 mL, in 30% cyclodextrin or 0.5% methylcellulose vehicle), or with testosterone propionate (administered subcutaneously by injection at the nape of the neck at 5 mg/kg, in a volume of 0.1 mL in sesame oil), or with vehicle (1 mL of 30% cyclodextrin or 0.5% methylcellulose, given orally). On the fifteenth day, the rats were euthanized by asphyxiation in carbon dioxide. Ventral prostates and levator ani muscles were removed and their wet weights determined.
Test compound activity was determined as the percent stimulation of tissue weight, with the vehicle-treated control group set to zero percent and the testosterone alone-treated control group set to 100%. A compound was designated as “active” if it produced greater than or equal to 25% stimulation of levator ani at 30 mg/kg.

Row | SMILES | Activity (percent stimulation of levator ani weight)
33 | CC(O)(CC#N)c1nc2cc(Cl)c(Cl)cc2[nH]1 (stereo not drawn) [Compound 7, 3-(5,6-dichloro-1H-benzoimidazol-2-yl)-3-hydroxy-butyronitrile] | active
